Test results published in ChEMBL document CHEMBL5131526, “Substituted N-Heteroaryl-N-Pyridinylacetamides as P2X4 Modulators for Treating Pain” (ACS Med Chem Lett, 2022).

These compounds were tested against T1, P2X purinoceptor 4 (Homo sapiens, UniProt Q99571) (assay: Inhibition of human P2X4 stably expressed in human HEK293 cells assessed as intracellular calcium flux incubated for 30 mins in presence of agonist Benzoylbenzoyl-ATP by Fluo8-AM dye based FLIPR assay).
T1 sequence (Q99571 whole entry): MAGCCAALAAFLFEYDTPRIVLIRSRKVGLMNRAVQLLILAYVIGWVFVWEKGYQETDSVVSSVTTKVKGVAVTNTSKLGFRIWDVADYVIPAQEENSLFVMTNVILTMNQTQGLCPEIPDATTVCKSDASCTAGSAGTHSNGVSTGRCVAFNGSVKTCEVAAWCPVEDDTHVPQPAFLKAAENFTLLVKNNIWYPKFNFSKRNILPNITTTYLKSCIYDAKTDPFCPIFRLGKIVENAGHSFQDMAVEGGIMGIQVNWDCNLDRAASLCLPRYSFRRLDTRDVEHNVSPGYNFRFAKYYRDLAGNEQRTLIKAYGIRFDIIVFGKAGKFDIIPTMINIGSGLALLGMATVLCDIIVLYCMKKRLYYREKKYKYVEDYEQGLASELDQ
Format: cell-based

SMILES | IC50 [nM]
CC(=O)N(c1ccc2ncoc2c1)c1cc(NC(=O)Cc2ccccc2Cl)ccn1 | 168
CC(=O)N(c1ccn2nccc2c1)c1cc(NC(=O)Cc2c(Cl)cccc2Cl)ccn1 | 157
CC(=O)N(c1cc(NC(=O)Cc2c(Cl)cccc2Cl)ccn1)c1ccncc1F | 171

Now those with a lower IC50, led by results:

IC50 [nM] | SMILES
143 | CC(=O)N(c1ccc2ncoc2c1)c1cc(NC(=O)Cc2cccc(F)c2Cl)ccn1
142 | CC(=O)N(c1ccc2ncsc2c1)c1cc(NC(=O)Cc2ccccc2Cl)ccn1
141 | CC(=O)N(c1ccc2ncoc2c1)c1cc(NC(=O)Cc2c(Cl)cccc2Cl)ccn1
